In paper PMC10218498, “Exploring BenzylethoxyAryl Urea Scaffolds for Multitarget Immunomodulation Therapies” (International Journal of Molecular Sciences, 2023):
Where two headings read alike, the source gives them in different places.

Assays:
CD11b = CD11b relative quantification by flow cytometry in co-cultured THP-1; type: cell-based, human; conditions: 20 μM; for % CD11b: related to non-treated cells; for reduction of CD11b: excess of cancer cells (2:1)
Description: (§1) Reducing the expression of CD11b has become a promising target for immune modulation in anti-cancer therapies. For that reason, we decided to study the effect of our compounds on CD11b in THP-1 cells co-cultured with HT-29. We also determine the relative amount of CD80, a common surface marker for monocytes. This study was performed on the collected cell culture from each well and gating living THP-1 cell population.
(§2) To study the effect of the compounds on every biological target in co-cultured THP-1 immune cells with cancer cell line HT-29, the compounds were incubated for 24 h/48 h as described before.
(§3) To detect membrane CD11b and CD80, after the cell incubation, suspended THP-1 was collected from the cell culture of each sample well, fixed with 4% in PBS paraformaldehyde, and stained with FITC Mouse monoclonal Anti-Human CD80 (Sigma-Aldrich, S. Louis, MO, USA, SAB4700142) and Alexa Fluor® 647 Rabbit monoclonal Anti-CD11b (Merck, S. Louis, MO, USA, #MABF366).

CD80 = CD80 relative quantification by flow cytometry in co-cultured THP-1; type: cell-based, human; conditions: 20 μM, related to non-treated cells
Description: as §1, §2, §3

[1] = system: MCF-7 (Human breast cancer adenocarcinoma); assay: MTT cell proliferation assay, MCF-7; type: cell-based; conditions: for IC50: Homo sapiens; for SI (MCF-7): selectivity index vs HEK-293
Description: (§4) The 3-(4,5-dimethylthiazol-2-yl)-2,5-diphenyltetrazolium bromide (MTT; Sigma Chemical Co.) dye reduction assay in 96-well microplates was used. […] After that, the supernatant was discarded and replaced by 100 µL of DMSO to dissolve formazan crystals. The absorbance was then read at 550 nm by spectrophotometry. For all concentrations of compound, cell viability was expressed as the percentage of the ratio between the mean absorbance of treated cells and the mean absorbance of untreated cells. Three independent experiments were performed, and the IC50 values (i.e., concentration half inhibiting cell proliferation) were graphically determined using GraphPad Prism 4 software.

THP-1 cells = assay: Immune cell viability in monoculture and co-cultures with HT-29 by flow cytometry; type: cell-based, human; conditions: for THP-1 living cells compared to control (%), Monocult. THP-1: THP-1 monoculture, 20 μM; for THP-1 living cells compared to control (%), 1:5 HT-29/THP-1, 24 h / THP-1 living cells compared to control (%), 1:5 HT-29/THP-1, 48 h: co-culture 1:5 HT-29/THP-1, 20 μM; for THP-1 living cells compared to control (%), 2:1 HT-29/THP-1, 24 h / THP-1 living cells compared to control (%), 2:1 HT-29/THP-1, 48 h: co-culture 2:1 HT-29/THP-1, 20 μM
Description: From the previous study, we also determined the effect of the selected compounds on the human monocyte cells THP-1 in the described co-cultures. We also assessed the effect of the compounds on the cell viability of monocultured THP-1.
On the other hand, to study the effect of the compounds on the cell viability in co-culture with THP-1 cells, 10^5 or 2 × 10^5 of the HT-29 cells line per well were seeded and incubated for 24 h, then the medium was changed by one cell culture medium supplemented with IFN-γ (10 ng/mL; human, Invitrogen®, Waltham, MA, USA) and containing 5 × 10^5 or 105, respectively, of THP-1 per well and the corresponding compound at 20 μM or DMSO for the positive control. After 24 h/48 h of incubation, supernatants were collected to determine THP-1 living cells. Additionally, stain cancer cells were collected with trypsin. Both types of suspension cells were fixed with 4% in PBS paraformaldehyde and counted by flow cytometry.

PD-L1 = PD-L1 (Homo sapiens, UniProt Q9NZQ7); assay: PD-L1 relative quantification by flow cytometry in HT-29; type: cell-based; parameters: endogenous in cells; host or cells: HT-29; conditions: 24 h; for Total PD-L1 (%): relative to DMSO control = 100; for inhibition at 20 µM: read-out: inhibition rate of PD-L1
Description: To assess the effect of the selected compounds on the biological targets PD-L1 and VEFGR-2, we performed the study on both cancer cell lines HT-29 and A-549 and by flow cytometry technique. […] For these assays, cells were incubated for 24 h in the presence of the corresponding compounds at 20 µM concentration.
(§5) To study the effect of the compounds on every biological target in cancer cell lines, the compounds were used at 20 µM dose.
(§6) For the assay, 10^5 cells per well were incubated for 24 h with the corresponding dose of the tested compound in a total volume of 500 μL of their growth media.
On the one hand, to detect total PD-L1 and VEGFR-2, after the cell treatments, they were collected and fixed with 4% in PBS paraformaldehyde. After fixation, a treatment with 0.5% in PBS TritonTM X-100 was performed, and finally, cells were stained with FITC Mouse monoclonal Anti-Human VEGFR-2 (ab184903) and Alexa Fluor® 647 Rabbit monoclonal Anti-PD-L1 (ab215251).
(§7) On the other hand, to detect membrane PD-L1 and VEGFR-2, the process was the same, avoiding the treatment with 0.5% in PBS TritonTM X-100 step.

VEGFR-2 = VEGFR-2 (Homo sapiens, UniProt P35968); assay: VEGFR-2 relative quantification by flow cytometry in MCF-7; type: cell-based; parameters: Both membrane and total PD-L1 and VEGFR-2 were relatively determined using DMSO-treated cells as a negative control; endogenous in cells; host or cells: MCF-7; conditions: MCF-7, 20 µM, 24 h, control = 100
Description: Then, we determined the effect of the selected compounds on the biological targets, PD-L1 and VEGFR-2, by flow cytometry. […] As usually, the assay was performed at a concentration of 20 µM for 24 h.
as §5, §6
On the one hand, to detect total PD-L1 and VEGFR-2, after the cell treatments, they were collected and fixed with 4% in PBS paraformaldehyde.
as §7

[2] = system: HT-29 (colon adenocarcinoma); assay: MTT cell proliferation assay, HT-29; type: cell-based, human; conditions: for IC50: Homo sapiens, read-out: IC50 HT-29; for SI (HT-29) (IC50HEK293/IC50HT-29): selectivity index
Description: as §4

[3] = membrane THP-1, 1:5 HT-29/THP-1, 24 h
[4] = membrane THP-1, 2:1 HT-29/THP-1, 48 h
[5] = MCF7, MTT, read-out: IC50 (μM) MCF-7

Chain of VEGFR-2 (P35968 20-1356): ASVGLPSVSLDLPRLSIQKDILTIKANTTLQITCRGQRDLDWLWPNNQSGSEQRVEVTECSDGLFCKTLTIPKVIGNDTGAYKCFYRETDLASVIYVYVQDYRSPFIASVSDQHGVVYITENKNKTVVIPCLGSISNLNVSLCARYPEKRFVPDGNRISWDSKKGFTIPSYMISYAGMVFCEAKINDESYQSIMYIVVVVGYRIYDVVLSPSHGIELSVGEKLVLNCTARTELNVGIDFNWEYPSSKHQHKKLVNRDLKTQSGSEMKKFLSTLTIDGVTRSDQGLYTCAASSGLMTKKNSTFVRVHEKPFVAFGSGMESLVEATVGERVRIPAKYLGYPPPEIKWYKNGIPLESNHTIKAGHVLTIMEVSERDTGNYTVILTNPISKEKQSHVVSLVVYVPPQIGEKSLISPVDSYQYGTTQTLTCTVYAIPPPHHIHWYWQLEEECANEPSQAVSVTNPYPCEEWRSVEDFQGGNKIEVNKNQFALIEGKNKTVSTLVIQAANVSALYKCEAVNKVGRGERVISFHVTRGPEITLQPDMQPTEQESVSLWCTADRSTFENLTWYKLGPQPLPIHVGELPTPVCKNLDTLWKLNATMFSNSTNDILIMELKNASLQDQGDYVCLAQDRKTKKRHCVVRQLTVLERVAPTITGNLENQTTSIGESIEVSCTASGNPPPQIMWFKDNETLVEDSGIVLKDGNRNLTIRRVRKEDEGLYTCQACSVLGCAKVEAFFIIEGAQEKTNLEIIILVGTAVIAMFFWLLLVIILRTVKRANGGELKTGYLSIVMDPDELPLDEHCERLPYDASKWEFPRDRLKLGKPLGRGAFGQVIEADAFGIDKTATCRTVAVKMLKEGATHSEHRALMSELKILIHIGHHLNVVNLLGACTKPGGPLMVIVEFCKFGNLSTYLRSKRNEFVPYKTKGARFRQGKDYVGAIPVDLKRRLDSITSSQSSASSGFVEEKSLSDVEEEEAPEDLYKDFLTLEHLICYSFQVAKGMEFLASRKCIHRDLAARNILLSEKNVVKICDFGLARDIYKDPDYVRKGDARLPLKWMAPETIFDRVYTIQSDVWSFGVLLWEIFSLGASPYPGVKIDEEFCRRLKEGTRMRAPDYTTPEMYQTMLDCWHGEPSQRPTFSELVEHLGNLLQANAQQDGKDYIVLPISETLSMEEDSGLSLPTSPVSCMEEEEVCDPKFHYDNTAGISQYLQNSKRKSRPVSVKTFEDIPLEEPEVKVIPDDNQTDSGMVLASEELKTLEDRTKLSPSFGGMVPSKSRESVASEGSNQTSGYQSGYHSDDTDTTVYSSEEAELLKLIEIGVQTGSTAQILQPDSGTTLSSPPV
Chain of PD-L1 (Q9NZQ7 19-290): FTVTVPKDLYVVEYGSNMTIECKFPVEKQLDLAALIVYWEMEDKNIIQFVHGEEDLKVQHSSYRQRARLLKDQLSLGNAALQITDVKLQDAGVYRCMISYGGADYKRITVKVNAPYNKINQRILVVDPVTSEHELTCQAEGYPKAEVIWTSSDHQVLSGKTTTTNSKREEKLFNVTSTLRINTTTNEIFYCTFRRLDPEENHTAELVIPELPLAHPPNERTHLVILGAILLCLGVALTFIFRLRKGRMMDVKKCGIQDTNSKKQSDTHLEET

| SMILES | IC50 [1, 5] [µM] | Total PD-L1 (%) (PD-L1; HT-29, 20 µM) | % VEGFR-2 Memb. (VEGFR-2) [%] | % VEGFR-2 Total (VEGFR-2) [%] | IC50 ([2]; HT-29, MTT, 48 h of treatment) [µM] | inhibition at 20 µM (PD-L1; HT-29, HT-29, 20 µM) [%] | % CD11b (CD11b; [3]) [%] | % CD11b (CD11b; [4]) [%] | % CD80 (CD80; [3]) [%] | % CD80 (CD80; [4]) [%] | SI (MCF-7) [1] | THP-1 living cells compared to control (%), Monocult. THP-1 (THP-1 cells) [%] | THP-1 living cells compared to control (%), 1:5 HT-29/THP-1, 24 h (THP-1 cells) [%] | THP-1 living cells compared to control (%), 1:5 HT-29/THP-1, 48 h (THP-1 cells) [%] | THP-1 living cells compared to control (%), 2:1 HT-29/THP-1, 24 h (THP-1 cells) [%] | THP-1 living cells compared to control (%), 2:1 HT-29/THP-1, 48 h (THP-1 cells) [%] | SI (HT-29) (IC50HEK293/IC50HT-29) [2] | reduction of CD11b (CD11b; 48 h) | further results |
| --- | --- | --- | --- | --- | --- | --- | --- | --- | --- | --- | --- | --- | --- | --- | --- | --- | --- | --- | --- |
| Cc1c(COc2ccc(CN3CCCCC3C(=O)O)cc2Br)cccc1-c1ccccc1 (centres unmarked) [BMS-8, reference compound] | 20 ± 3 | 82 ± 21 | 107 ± 4 | 93 | 19 ± 2 |  | 91 ± 1 | 80 ± 2 | 101 ± 6 | 101 ± 6 | 3 | 99 ± 2 | 94 ± 0 | 93 ± 0 | 101 ± 9 | 97 ± 2 | 3 |  |  |
| COc1ccc(COc2cccc(NC(=O)Oc3ccccc3)c2)cc1 [Compound 14] |  | 68 ± 5 | 89 ± 11 | 110 ± 12 |  |  | 78 ± 11 | 81 ± 8 | 99 ± 6 | 102 ± 1 | >5 | 127 ± 12 | 93 ± 9 | 97 ± 9 | 81 ± 6 | 109 ± 2 | >15 | about 20% | IC50 ([1]; MCF7, read-out: IC50 (μM) MCF-7): 20 ± 9 µM; inhibition at 20 µM (PD-L1; HT-29, 20 µM): ~40%; IC50 ([2]; HT-29, 48 h): 6.8 ± 0.5 µM |
| COc1ccc(COc2cccc(NC(=O)Nc3ccc(F)cc3)c2)cc1 [Compound 2] | 0.17 ± 0.03 | 71 ± 15 | 91 ± 12 | 72 ± 10 | 5.5 ± 1.2 | ~50 | 92 ± 9 | 86 ± 3 | 99 ± 5 | 105 ± 1 | >580 | 111 ± 13 | 97 ± 7 | 105 ± 4 | 90 ± 28 | 105 ± 1 | >18 | about 20% |  |

Continued, in another order:

| IC50 [1, 5] [µM] | Total PD-L1 (%) (PD-L1; HT-29, 20 µM) | % VEGFR-2 Memb. (VEGFR-2) [%] | % VEGFR-2 Total (VEGFR-2) [%] | IC50 ([2]; HT-29, MTT, 48 h of treatment) [µM] | inhibition at 20 µM (PD-L1; HT-29, HT-29, 20 µM) [%] | SMILES | % CD11b (CD11b; [3]) [%] | % CD11b (CD11b; [4]) [%] | % CD80 (CD80; [3]) [%] | % CD80 (CD80; [4]) [%] | SI (MCF-7) [1] | THP-1 living cells compared to control (%), Monocult. THP-1 (THP-1 cells) [%] | THP-1 living cells compared to control (%), 1:5 HT-29/THP-1, 24 h (THP-1 cells) [%] | THP-1 living cells compared to control (%), 1:5 HT-29/THP-1, 48 h (THP-1 cells) [%] | THP-1 living cells compared to control (%), 2:1 HT-29/THP-1, 24 h (THP-1 cells) [%] | THP-1 living cells compared to control (%), 2:1 HT-29/THP-1, 48 h (THP-1 cells) [%] | SI (HT-29) (IC50HEK293/IC50HT-29) [2] | reduction of CD11b (CD11b; 48 h) | further results |
| --- | --- | --- | --- | --- | --- | --- | --- | --- | --- | --- | --- | --- | --- | --- | --- | --- | --- | --- | --- |
| > 200 | 118 ± 3 | 81 ± 11 | 83 ± 21 | 2 ± 1.2 |  | COc1ccc(COc2cccc(NC(=O)Nc3ccc(OC)cc3)c2)cc1 [Compound 11] | 95 ± 6 | 83 ± 5 | 102 ± 6 | 103 ± 2 |  | 103 ± 7 | 105 ± 4 | 94 ± 9 | 66 ± 24 | 102 ± 5 | >50 | about 20% | inhibition rate of PD-L1 (PD-L1; HT-29, 20 µM): no inhibitory effect |
| 1.3 ± 0.4 | 40 ± 2 | 82 ± 6 | 88 ± 11 | 11 ± 1 | ~60 | COc1ccc(COc2cccc(NC(=O)Nc3ccc(Br)cc3)c2)cc1 [Compound 8] | 91 ± 4 | 93 ± 25 | 95 ± 9 | 103 ± 2 | >77 | 98 ± 10 | 95 ± 12 | 100 ± 11 | 82 ± 14 | 97 ± 9 | >9 |  |  |
